Experimental data published in ChEMBL document CHEMBL1201862, “PubChem BioAssay data set” (2004).
The source made the active and inactive calls. Rule as the data show it: actives have a measured IC50 and inactives only a lower limit.

Biological target: Envelope glycoprotein gp160 (Human immunodeficiency virus 1, UniProt Q6QLK5)
Assay: inhibitors of HIV fusion peptide binding, primary screen, biochemical, uHTS, fluorescence dequenching (AID 1986)

Chain of Envelope glycoprotein gp160 (Q6QLK5 whole entry, the tested form may be a part): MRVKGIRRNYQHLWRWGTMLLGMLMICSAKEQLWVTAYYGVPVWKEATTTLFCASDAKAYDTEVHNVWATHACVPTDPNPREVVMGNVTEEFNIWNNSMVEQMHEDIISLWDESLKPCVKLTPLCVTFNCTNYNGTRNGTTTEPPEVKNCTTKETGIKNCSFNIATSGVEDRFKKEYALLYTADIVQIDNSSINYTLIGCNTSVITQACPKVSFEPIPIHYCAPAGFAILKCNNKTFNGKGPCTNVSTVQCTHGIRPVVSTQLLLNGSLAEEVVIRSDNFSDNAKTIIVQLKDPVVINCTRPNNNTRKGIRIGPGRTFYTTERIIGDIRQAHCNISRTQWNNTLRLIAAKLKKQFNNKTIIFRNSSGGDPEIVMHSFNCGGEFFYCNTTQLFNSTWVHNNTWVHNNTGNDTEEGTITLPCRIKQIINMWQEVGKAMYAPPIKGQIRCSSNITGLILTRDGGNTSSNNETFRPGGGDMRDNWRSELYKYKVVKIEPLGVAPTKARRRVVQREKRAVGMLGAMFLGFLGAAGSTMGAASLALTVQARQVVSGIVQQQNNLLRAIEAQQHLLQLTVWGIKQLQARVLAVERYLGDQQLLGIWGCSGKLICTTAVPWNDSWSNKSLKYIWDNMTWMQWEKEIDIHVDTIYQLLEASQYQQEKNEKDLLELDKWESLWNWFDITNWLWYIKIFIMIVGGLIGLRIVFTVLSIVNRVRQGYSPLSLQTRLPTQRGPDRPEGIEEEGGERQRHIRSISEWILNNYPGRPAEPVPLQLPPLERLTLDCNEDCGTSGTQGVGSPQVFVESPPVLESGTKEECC

Cc1ccccc1NC1=NC(=O)/C(=C/c2cccn2-c2cccc(C(=O)O)c2)S1
IC50: 11.3 µM (active)

CCCCCCCCCCCCCCCC[n+]1ccn(CC(C)=O)c1
IC50: 14.4 µM (active)

O=C(Nc1ccc(-c2nc3ccccc3[nH]2)cc1)c1ccccc1NS(=O)(=O)c1ccc(F)cc1
IC50: 24.6 µM (active)
